For one test, the system named is WEEV California. Put plainly: microbe, parasite or virus in culture. Format: cell-based. The following applies: Western equine encephalitis virus, Vero 76, 48 h, read-out: WEEV California EC50 nM.
The test system of another test is VEEV TC83. Description: microbe, parasite or virus in culture. Format: cell-based. The settings on record: Venezuelan equine encephalitis virus, Vero 76, 48 h, read-out: VEEV TC83 EC50 nM.

Some results are limits rather than exact numbers.

As a reminder, the EC50 is the concentration that produces a half-maximal response. Turning to `Cc1ccc(-n2c([C@H]3CCCN3)nc3ccc([N+](=O)[O-])cc3c2=O)cc1` [Example 37, (R)-6-nitro-2-(pyrrolidin-2-yl)-3-(p-tolyl)quinazolin-4 (3H)-one], the EC50 in the test on WEEV California was 501 to 1000 nM; in the test on VEEV TC83, 1 to 50 nM.
Turning to `O=c1c2cc([N+](=O)[O-])ccc2nc([C@@H]2CCCN2C2CCOCC2)n1-c1ccccc1` [Example 6, (S)-6-nitro-3-phenyl-2-(1-(tetrahydro-2H-pyran-4-yl)pyrrolidin-2-yl)quinazolin-4 (3H)-one], the 50% effective concentration (EC50) in the test on WEEV California was over 1000 nM; in the test with VEEV TC83 it was 501 to 1000 nM.
Taken in the same sequence, the figures for `COc1ccc(-n2c([C@H]3CCCN3C)nc3c(-c4ccoc4)cc(C#N)cc3c2=O)cc1F` [Example 115, (R)-3-(3-fluoro-4-methoxyphenyl)-8-(furan-3-yl)-2-(1-methylpyrrolidin-2-yl)-4-oxo-3,4-dihydroquinazoline-6-carbonitrile] were 1 to 50 nM and 1 to 50 nM.
Taken in the same sequence, the figures for `COc1ccc(-n2c([C@@H]3CCCN3)nc3ccc(F)c(F)c3c2=O)cc1` [Example 30, (S)-5,6-difluoro-3-(4-methoxyphenyl)-2-(pyrrolidin-2-yl) quinazolin-4 (3H)-one] were over 1000 nM and over 1000 nM.
Taken in the same sequence, the figures for `COc1ccc(-n2c(C3CCCN3)nc3c(-c4ccc(-c5ccccc5)nc4)cc(C#N)cc3c2=O)cc1F` (stereo not shown) [Example 133, 3-(3-fluoro-4-methoxyphenyl)-4-oxo-8-(6-phenylpyridin-3-yl)-2-(pyrrolidin-2-yl)-3,4-dihydroquinazoline-6-carbonitrile] were 1 to 50 nM and 1 to 50 nM.
For the compound `COc1ccc(-n2c([C@H]3CCCN3)nc3cc([N+](=O)[O-])ccc3c2=O)cc1` [Example 48, (R)-3-(4-methoxyphenyl)-7-nitro-2-(pyrrolidin-2-yl)quinazolin-4 (3H)-one], the EC50 in the test on WEEV California and in the test with VEEV TC83 was over 1000 nM each time.
For the compound `COc1ccc(-n2c([C@H]3CCCN3)nc3c(Br)cc([N+](=O)[O-])cc3c2=O)cc1` [Example 80, (R)-8-bromo-3-(4-methoxyphenyl)-6-nitro-2-(pyrrolidin-2-yl) quinazolin-4 (3H)-one], the concentration giving a half-maximal response (EC50) with WEEV California and in the test on VEEV TC83 was 1 to 50 nM each time.
As to `COc1ccc(-n2c([C@@H]3CCNC3)nc3ccc([N+](=O)[O-])cc3c2=O)cc1` [Example 19, (R)-3-(4-methoxyphenyl)-6-nitro-2-(pyrrolidin-3-yl)quinazolin-4 (3H)-one], the results for the EC50 in the test with WEEV California and in the test with VEEV TC83 were 151 to 500 nM and 1 to 50 nM, respectively.
For `COc1cc(F)ccc1-n1c([C@H]2CCCN2)nc2ccc([N+](=O)[O-])cc2c1=O` [Example 26, (R)-3-(2-methoxy-4-fluorophenyl)-6-nitro-2-(pyrrolidin-2-yl) quinazolin-4 (3H)-one], the EC50 in the test on WEEV California and in the test with VEEV TC83 was over 1000 nM throughout.
As for `COc1ccc(-n2c(C3CCCN3)nc3c(-c4ccnc(C)c4)cc(C#N)cc3c2=O)cc1F` (stereo not shown) [Example 138, 3-(3-fluoro-4-methoxyphenyl)-8-(2-methylpyridin-4-yl)-4-oxo-2-(pyrrolidin-2-yl)-3,4-dihydroquinazoline-6-carbonitrile], the EC50 in the test with WEEV California and with VEEV TC83 was 1 to 50 nM each time.
As to `COc1ccc(-n2c([C@H]3CCCN3)nc3ccc([N+](=O)[O-])cc3c2=O)cc1F` [Example 24, (R)-3-(3-fluoro-4-methoxyphenyl)-6-nitro-2-(pyrrolidin-2-yl) quinazolin-4 (3H)-one], the EC50 with WEEV California and with VEEV TC83 was 1 to 50 nM each time.
Take `COc1ccc(-n2c([C@H]3CCCN3C)nc3c(C)cc([N+](=O)[O-])cc3c2=O)cc1F` [Example 71, (R)-3-(3-fluoro-4-methoxyphenyl)-8-methyl-2-(1-methylpyrrolidin-2-yl)-6-nitroquinazolin-4 (3H)-one]: the EC50 in the test on WEEV California and with VEEV TC83 was 51 to 150 nM throughout.
Take `COc1ccc(-n2c([C@H]3CCCN3)nc3c(C(F)(F)F)cc(C#N)cc3c2=O)cc1F` [Example 76, (R)-3-(3-fluoro-4-methoxyphenyl)-4-oxo-2-(pyrrolidin-2-yl)-8-(trifluoromethyl)-3,4-dihydroquinazoline-6-carbonitrile]: the EC50 with WEEV California and in the test on VEEV TC83 was 1 to 50 nM each time.
Turning to `COc1ccc(-n2c([C@@H]3CCCN3C3CCOCC3)nc3ccc(F)c(F)c3c2=O)cc1` [Example 31, (S)-5,6-difluoro-3-(4-methoxyphenyl)-2-(1-(tetrahydro-2H-pyran-4-yl)pyrrolidin-2-yl) quinazolin-4 (3H)-one], the EC50 with WEEV California and with VEEV TC83 was over 1000 nM throughout.
Turning to `COc1ccc(-n2c([C@@H]3CCCN3)nc3c(C)cc(C#N)cc3c2=O)cc1` [Example 51, (S)-3-(4-methoxyphenyl)-8-methyl-4-oxo-2-(pyrrolidin-2-yl)-3,4-dihydroquinazoline-6-carbonitrile], the EC50 lay in the range of 501 to 1000 nM with WEEV California and 151 to 500 nM with VEEV TC83.
Taken in the same sequence, the figures for `COc1ccc(-n2c([C@H]3CCCN3)nc3ccc(F)c(F)c3c2=O)cc1` [Example 28, (R)-5,6-difluoro-3-(4-methoxyphenyl)-2-(pyrrolidin-2-yl) quinazolin-4 (3H)-one] were over 1000 nM and 151 to 500 nM.
For the compound `COc1ccc(-n2c([C@H]3CC(=O)CN3)nc3c(-c4ccc(C)nc4)cc(C#N)cc3c2=O)cc1F` [Example 186, (R)-3-(3-fluoro-4-methoxyphenyl)-8-(6-methylpyridin-3-yl)-4-oxo-2-(4-oxopyrrolidin-2-yl)-3,4-dihydroquinazoline-6-carbonitrile], the EC50 with WEEV California was 501 to 1000 nM; in the test on VEEV TC83, 151 to 500 nM.
Taken in the same sequence, the figures for `N#Cc1ccccc1-n1c([C@H]2CCCN2)nc2ccc([N+](=O)[O-])cc2c1=O` [Example 22, (R)-2-(6-nitro-4-oxo-2-(pyrrolidin-2-yl)quinazolin-3 (4H)-yl)benzonitrile] were over 1000 nM and over 1000 nM.
Taken in the same sequence, the figures for `O=c1c2cc([N+](=O)[O-])ccc2nc(C2CCCN2)n1-c1cccc(F)c1` (stereo not shown) [Example 40, 3-(3-fluorophenyl)-6-nitro-2-(pyrrolidin-2-yl)quinazolin-4 (3H)-one] were 501 to 1000 nM and 1 to 50 nM.
On to `COc1ccc(-n2c([C@H]3CCCN3)nc3c(-c4ccnc(F)c4)cc(C#N)cc3c2=O)cc1F` [Example 104, (R)-3-(3-fluoro-4-methoxyphenyl)-8-(2-fluoropyridin-4-yl)-4-oxo-2-(pyrrolidin-2-yl)-3,4-dihydroquinazoline-6-carbonitrile], for which the EC50 in the test with WEEV California and with VEEV TC83 was 1 to 50 nM in each case.
Consider `COc1ccc(-n2c([C@@H]3CCN(C)C3)nc3c(C)cc([N+](=O)[O-])cc3c2=O)cc1F` [Example 68, (R)-3-(3-fluoro-4-methoxyphenyl)-8-methyl-2-(1-methylpyrrolidin-3-yl)-6-nitroquinazolin-4 (3H)-one], for which the EC50 with WEEV California and in the test on VEEV TC83 was 151 to 500 nM in each case.
As to `COc1c(F)cc(-n2c(C34CC(CN3)C4)nc3c(-c4cnc(C)c(C)c4)cc(C#N)cc3c2=O)cc1F` [Example 176, 2-(2-azabicyclo[2.1.1]hexan-1-yl)-3-(3,5-difluoro-4-methoxyphenyl)-8-(5,6-dimethylpyridin-3-yl)-4-oxo-3,4-dihydroquinazoline-6-carbonitrile], the concentration giving a half-maximal response (EC50) with WEEV California and in the test with VEEV TC83 was 1 to 50 nM in each case.
As for `COc1ccc(-n2c([C@@H]3C[C@@H](F)CN3)nc3c(C)cc([N+](=O)[O-])cc3c2=O)cc1` [Example 63, 2-((2S,4R)-4-fluoropyrrolidin-2-yl)-3-(4-methoxyphenyl)-8-methyl-6-nitroquinazolin-4 (3H)-one], the concentration for a half-maximal effect (EC50) in the test with WEEV California and in the test with VEEV TC83 was over 1000 nM throughout.
As to `COc1ccc(-n2c(C3CCCN3)nc3c(-c4ccc(N5CCCC5)nc4)cc(C#N)cc3c2=O)cc1F` (stereo not shown) [Example 127, 3-(3-fluoro-4-methoxyphenyl)-4-oxo-8-(6-(pyrrolidin-1-yl)pyridin-3-yl)-2-(pyrrolidin-2-yl)-3,4-dihydroquinazoline-6-carbonitrile], the values for the EC50 in the test with WEEV California and with VEEV TC83 were 51 to 150 nM and 1 to 50 nM, respectively.
For `COc1ccc(-n2c([C@H]3CCCN3)nc3c(-c4cccnc4)cc([N+](=O)[O-])cc3c2=O)cc1` [Example 85, (R)-3-(4-methoxyphenyl)-6-nitro-8-(pyridin-3-yl)-2-(pyrrolidin-2-yl) quinazolin-4 (3H)-one], the EC50 with WEEV California and in the test on VEEV TC83 was 1 to 50 nM each time.
Consider `COc1ccc(-n2c([C@@H]3CCNC3)nc3c(C)cc([N+](=O)[O-])cc3c2=O)cc1F` [Example 67, (R)-3-(3-fluoro-4-methoxyphenyl)-8-methyl-6-nitro-2-(pyrrolidin-3-yl) quinazolin-4 (3H)-one], for which the EC50 with WEEV California and with VEEV TC83 was 151 to 500 nM each time.
Regarding `COc1c(F)cc(-n2c(C3CCCN3)nc3c(C#CC(C)(C)O)cc(C#N)cc3c2=O)cc1F` (stereo not shown) [Example 193, 3-(3,5-Difluoro-4-methoxyphenyl)-8-(3-hydroxy-3-methylbut-1-yn-1-yl)-4-oxo-2-(pyrrolidin-2-yl)-3,4-dihydroquinazoline-6-carbonitrile], the concentration giving a half-maximal response (EC50) in the test on WEEV California and in the test on VEEV TC83 was 51 to 150 nM each time.
Take `COc1ccc(-n2c([C@@H]3CCCN3)nc3c(C)cc([N+](=O)[O-])cc3c2=O)cc1F` [Example 69, (S)-3-(3-fluoro-4-methoxyphenyl)-8-methyl-6-nitro-2-(pyrrolidin-2-yl) quinazolin-4 (3H)-one]: the results for the EC50 in the test with WEEV California and in the test with VEEV TC83 were 51 to 150 nM and 151 to 500 nM, respectively.
On the same counts, the results for `COCCOc1c(F)cc(-n2c(C3CCCN3)nc3c(-c4ccnc(C)c4)cc(C#N)cc3c2=O)cc1F` (stereo not shown) [Example 161, 3-(3,5-Difluoro-4-(2-methoxyethoxy)phenyl)-8-(2-methylpyridin-4-yl)-4-oxo-2-(pyrrolidin-2-yl)-3,4-dihydroquinazoline-6-carbonitrile] are 151 to 500 nM and 51 to 150 nM.

Values taken from patent US20220348558A1, “INHIBITORS OF ENCEPHALITIC ALPHAVIRUSES” (priority 2019, published 2022).
